Measurements from ChEMBL document CHEMBL4811290, “Exploiting the hydrophobic channel of the NNIBP: Discovery of novel diarylpyrimidines as HIV-1 NNRTIs against wild-type and K103N mutant viruses” (Bioorg Med Chem, 2021).
≈ marks a conversion by molar mass, not a printed value. Calls of active or inactive are those of the source. The rule behind the calls is not given here.

What was measured:
[1] = tested on: Human immunodeficiency virus 1; assay: Antiviral activity against wild type HIV-1 IIIB infected in human MT4 cells assessed as inhibition of virus-induced cytopathic effect measured after 5 days by MTT assay; format: functional, organism-based; settings: Human immunodeficiency virus 1, IIIB, MT4, 120 h
[2] = tested on: Human immunodeficiency virus 1; assay: Antiviral activity against HIV1 harboring RT Y188L mutant infected in human MT4 cells assessed as inhibition of virus-induced cytopathic effect incubated for 5 days by MTT assay; format: functional, organism-based; settings: Human immunodeficiency virus 1, MT4, 120 h
[3] = tested on: Human immunodeficiency virus 1; assay: Antiviral activity against HIV1 harboring RT Y181C mutant infected in human MT4 cells assessed as inhibition of virus-induced cytopathic effect incubated for 5 days by MTT assay; format: functional, organism-based; settings: Human immunodeficiency virus 1, MT4, 120 h
[4] = tested on: Human immunodeficiency virus 1; assay: Antiviral activity against HIV1 harboring RT F227L/V106A mutant infected in human MT4 cells assessed as inhibition of virus-induced cytopathic effect incubated for 5 days by MTT assay; format: functional, organism-based; settings: Human immunodeficiency virus 1, MT4, 120 h
[5] = tested on: Human immunodeficiency virus 1; assay: Antiviral activity against HIV1 harboring RT E138K mutant infected in human MT4 cells assessed as inhibition of virus-induced cytopathic effect incubated for 5 days by MTT assay; format: functional, organism-based; settings: Human immunodeficiency virus 1, MT4, 120 h
[6] = tested on: Human immunodeficiency virus 1; assay: Antiviral activity against HIV1 harboring RT L100I mutant infected in human MT4 cells assessed as inhibition of virus-induced cytopathic effect incubated for 5 days by MTT assay; format: functional, organism-based; settings: Human immunodeficiency virus 1, MT4, 120 h
[7] = Cytotoxicity against mock-infected human MT4 cells incubated for 5 days by MTT assay; format: cell-based; settings: time 5 day
[8] = Selectivity index, ratio of CC50 for human MT4 cells to EC50 for Antiviral activity against HIV-1 IIIB infected in human MT4 cells; format: toxicity, cell-based; settings: read-out: Selectivity Index
[9] = tested on: Human immunodeficiency virus 1; assay: Antiviral activity against HIV1 harboring K103N mutant infected in human MT4 cells assessed as inhibition of virus-induced cytopathic effect incubated for 5 days by MTT assay; format: functional, organism-based; settings: Human immunodeficiency virus 1, MT4, 120 h
[10] = tested on: Human immunodeficiency virus 1; assay: Antiviral activity against HIV1 harboring RT RES056 mutant infected in human MT4 cells assessed as inhibition of virus-induced cytopathic effect incubated for 5 days by MTT assay; format: functional, organism-based; settings: Human immunodeficiency virus 1, MT4, 120 h
[11] = tested on: MT4; assay: Antiviral activity against wild type HIV-2 ROD infected in human MT4 cells assessed as inhibition of virus-induced cytopathic effect measured after 5 days by MTT assay; format: functional, cell-based; settings: Human immunodeficiency virus 2, ISOLATE ROD, time 5.0 day
[12] = Water solubility of compound at pH 2; format: physicochemical
[13] = Water solubility of compound at pH 7; format: physicochemical
[14] = Water solubility of compound at pH 7.4; format: physicochemical
[15] = biological target: Human immunodeficiency virus type 1 reverse transcriptase (Human immunodeficiency virus 1, UniProt Q72547); assay: Inhibition of HIV-1 reverse transcriptase assessed as inhibition of biotin-dUTP incorporation into cDNA measured after 1 hr by ELISA

| Compound | EC50 [1] | EC50 [2] | EC50 [3] | EC50 [4] | EC50 [5] | EC50 [6] | CC50 at 120 h [7] | selectivity ratio [8] | EC50 [9] | EC50 [10] | Activity [11] | solubility [12] | solubility [13] | solubility [14] | IC50 [15] |
| --- | --- | --- | --- | --- | --- | --- | --- | --- | --- | --- | --- | --- | --- | --- | --- |
| C=CC(=O)N1CCC(=CC#Cc2cc(C)c(Oc3ccnc(Nc4ccc(C#N)cc4)n3)c(C)c2)CC1 | 35 nM | 409 nM | 1100 nM | > 4100 nM | 240 nM | 345 nM | 4100 nM | 116 | 46 nM | > 4100 nM | inactive | – | – | – | – |
| Cc1cn([C@H]2C[C@H](N=[N+]=[N-])[C@@H](CO)O2)c(=O)[nH]c1=O [ZIDOVUDINE] | 21 nM | 12 nM | 15 nM | 10 nM | 35 nM | 9 nM | > 7480 nM | > 352 | 22 nM | 24 nM | inactive | – | – | – | – |
| CCOC(=O)CN1CCC(=CC#Cc2cc(C)c(Oc3ccnc(Nc4ccc(C#N)cc4)n3)c(C)c2)CC1 | 7050 nM | > 201000 nM | > 201000 nM | > 201000 nM | > 201000 nM | > 201000 nM | 201000 nM | 29 | 39000 nM | > 201000 nM | inactive | – | – | – | – |
| Nc1ccn([C@H]2CS[C@@H](CO)O2)c(=O)n1 | 5230 nM | 4560 nM | 3400 nM | 2170 nM | 8270 nM | 1150 nM | > 87200 nM | > 309 | 2790 nM | 5060 nM | inactive | – | – | – | – |
| Cc1cc(C#N)cc(C)c1Oc1nc(Nc2ccc(C#N)cc2)nc(N)c1Br [ETRAVIRINE] | – | 21 nM | 20 nM | 20 nM | 19 nM | 8 nM | > 4610 nM | – | – | 67 nM | inactive | < 1 µg/mL | – | – | – |
| Cc1cc(C#CC=C2CCN(S(=O)(=O)C3CC3)CC2)cc(C)c1Oc1ccnc(Nc2ccc(C#N)cc2)n1 | 98 nM | 1410 nM | > 4660 nM | > 4660 nM | 685 nM | > 4660 nM | 4660 nM | 47 | 284 nM | > 4660 nM | inactive | – | – | – | – |
| COC(=O)c1ccc(CN2CCC(=CC#Cc3cc(C)c(Oc4ccnc(Nc5ccc(C#N)cc5)n4)c(C)c3)CC2)cc1 | 656 nM | > 33600 nM | > 33600 nM | > 33600 nM | 5460 nM | > 33600 nM | 33600 nM | 51 | 782 nM | > 33600 nM | inactive | – | – | – | – |
| Cc1cc(C#CC=C2CCN(Cc3cccc([N+](=O)[O-])c3)CC2)cc(C)c1Oc1ccnc(Nc2ccc(C#N)cc2)n1 | 187 nM | 5330 nM | 5550 nM | 26700 nM | 2150 nM | 2770 nM | 74600 nM | 399 | 510 nM | > 74600 nM | inactive | – | – | – | – |
| Cc1cc(C#CC=C2CCN(C(=O)N(C)C)CC2)cc(C)c1Oc1ccnc(Nc2ccc(C#N)cc2)n1 | 35 nM | 521 nM | 799 nM | > 4430 nM | 265 nM | 617 nM | 4430 nM | 125 | 86 nM | > 4430 nM | inactive | – | – | – | – |
| Cc1cc(C#CC=C2CCNCC2)cc(C)c1Oc1ccnc(Nc2ccc(C#N)cc2)n1 | 16 nM | 211 nM | 281 nM | 1270 nM | 204 nM | 231 nM | 4810 nM | 294 | 39 nM | 1460 nM | inactive | 47.3 µg/mL (≈ 109 µM) | 60.5 µg/mL (≈ 139 µM) | 67 µg/mL (≈ 154 µM) | 130 nM |
| O=C1Nc2ccc(Cl)cc2[C@@](C#CC2CC2)(C(F)(F)F)O1 [EFAVIRENZ] | – | 212 nM | 6 nM | – | 7 nM | 37 nM | > 6350 nM | – | 103 nM | 332 nM | inactive | – | – | – | – |
| Cc1cc(C#CC=C2CCN(S(=O)(=O)N(C)C)CC2)cc(C)c1Oc1ccnc(Nc2ccc(C#N)cc2)n1 | 114 nM | > 4790 nM | > 4790 nM | > 4790 nM | 750 nM | > 4790 nM | 4790 nM | 42 | 209 nM | > 4790 nM | inactive | – | – | – | – |
| CCC(=O)N1CCC(=CC#Cc2cc(C)c(Oc3ccnc(Nc4ccc(C#N)cc4)n3)c(C)c2)CC1 | 22 nM | 382 nM | 772 nM | 1300 nM | 171 nM | 253 nM | 4420 nM | 201 | 57 nM | > 4420 nM | inactive | 64.7 µg/mL (≈ 132 µM) | 62.2 µg/mL (≈ 127 µM) | 66.5 µg/mL (≈ 135 µM) | 2980 nM |
| CCS(=O)(=O)N1CCC(=CC#Cc2cc(C)c(Oc3ccnc(Nc4ccc(C#N)cc4)n3)c(C)c2)CC1 | 79 nM | 1280 nM | > 1350 nM | > 4960 nM | 493 nM | 1080 nM | 4960 nM | 62 | 165 nM | > 4960 nM | inactive | – | – | – | – |
| Cc1cc(C#CC=C2CCN(S(C)(=O)=O)CC2)cc(C)c1Oc1ccnc(Nc2ccc(C#N)cc2)n1 | 29 nM | 452 nM | 913 nM | > 5490 nM | 170 nM | 282 nM | 5490 nM | 186 | 57 nM | > 5490 nM | inactive | 20.4 µg/mL (≈ 39.7 µM) | 27.1 µg/mL (≈ 52.8 µM) | 26.6 µg/mL (≈ 51.8 µM) | 1980 nM |
| Cc1cc(C#CC=C2CCN(S(=O)(=O)C(C)C)CC2)cc(C)c1Oc1ccnc(Nc2ccc(C#N)cc2)n1 | 171 nM | > 4580 nM | > 4580 nM | > 4580 nM | 918 nM | > 4580 nM | 4580 nM | 27 | 573 nM | > 4580 nM | inactive | – | – | – | – |
| Cc1cc(C#CC=C2CCN(C(=O)OC(C)(C)C)CC2)cc(C)c1Oc1ccnc(Nc2ccc(C#N)cc2)n1 | 643 nM | 5560 nM | > 56700 nM | > 56700 nM | > 56700 nM | 984 nM | 16700 nM | 26 | > 56700 nM | > 56700 nM | inactive | – | – | – | – |
| Cc1ccnc2c1NC(=O)c1cccnc1N2C1CC1 [NEVIRAPINE] | 160 nM | > 15000 nM | 10500 nM | > 15000 nM | 258 nM | 2520 nM | > 15000 nM | > 94 | 6550 nM | > 15000 nM | inactive | – | – | – | – |
| Cc1cc(C#CC=C2CCN(Cc3ccccn3)CC2)cc(C)c1Oc1ccnc(Nc2ccc(C#N)cc2)n1 | 74 nM | 1030 nM | 4250 nM | > 5580 nM | 805 nM | > 5580 nM | 5580 nM | 75 | 200 nM | > 5580 nM | inactive | – | – | – | – |
| Cc1cc(C#CC=C2CCN(Cc3ccccc3C#N)CC2)cc(C)c1Oc1ccnc(Nc2ccc(C#N)cc2)n1 | 376 nM | 16100 nM | 20400 nM | > 42400 nM | 5460 nM | 8540 nM | > 227000 nM | > 604 | 1010 nM | > 227000 nM | inactive | – | – | – | – |
